Reference: patent US4789478A, “Conversion of inorganic ions to metal sulfides by microorganisms” (priority 1987, dated 1988)

Test system: Desulfomonas and Citrobacter freundii
Test: Effect of sulfate addition on sulfate-reducing activity of soil samples (Table 4)
Description: Soil samples are treated with a culture of Desulfomonas (10^8 cells/mL) and Citrobacter freundii (10^4 cells/mL) at 30° C., with and without added sulfate. Sulfate, if added, is a 1:1 mixture by weight of ferric ammonium sulfate and magnesium sulfate. Sulfate-reducing activity is indicated by formation of black precipitate in the soil sample within 24 h after mixing the cultures with soil samples.

For Sulfate, the “sulfate-reducing activity of the mixed culture (in words)” value (100 ppm of sulfate) was “greatly improves sulfate-reducing activity of the mixed culture” and the “sulfate reduction (in words)” value (200 ppm of sulfate) was “permit reduction in all cases”.
